According to patent US7569578B2, “Heterocyclic anti-migraine agents” (Bristol-Meyers Squibb Company, priority 2003, dated 2009):

target: T1, Human CGRP1 Receptor (Homo sapiens, UniProt O60894+Q16602); assay: CGRP Binding Assay ([125I]-CGRP radioligand displacement, SK-N-MC membrane homogenate); details: not given
T1 construct: endogenous in cells; host or cells: SK-N-MC cells (membrane homogenate)
Protocol: Tissue Culture. SK-N-MC cells were grown at 37° C. in 5% CO2 as a monolayer in medium consisting of MEM with Earle's salts and L-glutamine (Gibco) supplemented with 10% fetal bovine serum (Gibco).
Cell Pellets. […] The cells were transferred from plates to polypropylene tubes (16×100 mm) and homogenized using a polytron. Homogenates were centrifuged at 32,000×g for 30 min. The pellets were resuspended in cold hypotonic lysis buffer with 0.1% mammalian protease inhibitor cocktail (Sigma) and assayed for protein concentration. The SK-N-MC homogenate was then aliquoted and stored at −80° C. until needed.
Radioligand Binding Assay. The compounds of invention were solubilized and carried through serial dilutions using 100% DMSO. Aliquots from the compound serial dilutions were further diluted 25 fold into assay buffer (50 mM Tris-Cl pH 7.5, 5 mM MgCl2, 0.005% Triton X-100) and transferred (volume 50 μl) into 96 well assay plates. […] SK-N-MC pellets were thawed, diluted in assay buffer with fresh 0.1% mammalian protease inhibitor cocktail (Sigma), and homogenized again. SK-N-MC homogenate (5 μg/well) was added in a volume of 100 μl. The assay plates were then incubated at room temperature for 2 h. Assays were stopped by addition of excess cold wash buffer (20 mM Tris-Cl pH 7.5, 0.1% BSA) immediately followed by filtration over glass fiber filters (Whatman GF/B) previously soaked in 0.5% PEI. Non-specific binding was defined with 1 μM beta-CGRP. Protein bound radioactivity was determined using a gamma or scintillation counter.

T1 sequence (Q16602 23-461): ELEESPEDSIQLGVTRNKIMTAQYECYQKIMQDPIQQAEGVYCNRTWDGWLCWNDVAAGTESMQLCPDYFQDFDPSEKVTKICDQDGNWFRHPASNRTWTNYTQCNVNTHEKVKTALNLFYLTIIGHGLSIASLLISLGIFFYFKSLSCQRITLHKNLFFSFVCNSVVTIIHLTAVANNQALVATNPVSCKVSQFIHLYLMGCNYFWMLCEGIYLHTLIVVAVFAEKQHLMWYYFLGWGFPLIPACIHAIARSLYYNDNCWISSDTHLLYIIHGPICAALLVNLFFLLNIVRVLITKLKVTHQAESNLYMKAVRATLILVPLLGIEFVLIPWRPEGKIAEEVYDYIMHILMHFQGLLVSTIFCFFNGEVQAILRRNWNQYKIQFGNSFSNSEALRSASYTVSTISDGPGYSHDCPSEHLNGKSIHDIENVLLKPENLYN
T1 sequence (O60894 27-148): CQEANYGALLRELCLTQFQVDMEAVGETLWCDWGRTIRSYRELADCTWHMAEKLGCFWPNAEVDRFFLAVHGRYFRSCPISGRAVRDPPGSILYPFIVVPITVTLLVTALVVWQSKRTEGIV

Q: Which IC50 does the source give for `Cc1cc(CC(NC(=O)N2CCC(N3Cc4ccccc4NC3=O)CC2)c2nccn2Cc2ccccc2)cc2cn[nH]c12` (racemic) [Example 67, (±)-N-(1-(1-Benzyl-1H-imidazol-2-yl)-2-(7-methyl-1H-indazol-5-yl)ethyl)-4-(2-oxo-1,2-dihydroquinazolin-3(4H)-yl)piperidine-1-carboxamide] here?
A: < 10 nM

same assay, conditions: [125I]-CGRP displacement, SK-N-MC homogenate, room temperature 2 h; read-out: Human CGRP1 Receptor IC50

Q: How did the IC50 turn out when `Cc1cc(CC(NC(=O)N2CCC(N3Cc4ccccc4NC3=O)CC2)c2ncc[nH]2)cc2cn[nH]c12` (racemic) [Example 65, (±)-N-(1-(1H-Imidazol-2-yl)-2-(7-methyl-1H-indazol-5-yl)ethyl)-4-(2-oxo-1,2-dihydroquinazolin-3(4H)-yl)piperidine-1-carboxamide] was run?
A: 10 to 100 nM

Q: Which IC50 does the source give for `Cc1cc(CC(OC(=O)N2CCC(N3Cc4ccccc4NC3=O)CC2)c2cc(C(=O)N3CCCCC3)ccn2)cc2cn[nH]c12` (racemic) [Example 49, (±)-2-(7-Methyl-1H-indazol-5-yl)-1-(4-(piperidine-1-carbonyl)pyridin-2-yl)ethyl 4-(2-oxo-1,2-dihydroquinazolin-3(4H)-yl)piperidine-1-carboxylate] here?
A: < 10 nM

Q: `Cc1cc(CC(OC(=O)N2CCC(N3Cc4cccc(F)c4NC3=O)CC2)c2cccc(Cc3cc(F)cc(F)c3)n2)cc2cn[nH]c12` (racemic) [Example 44, (±)-1-(6-(3,5-Difluorobenzyl)pyridin-2-yl)-2-(7-methyl-1H-indazol-5-yl)ethyl 4-(8-fluoro-2-oxo-1,2-dihydroquinazolin-3(4H)-yl)piperidine-1-carboxylate] was tested. Which IC50 did it give?
A: < 10 nM

Q: For `Cc1cc(CC(NC(=O)N2CCC(N3Cc4ccccc4NC3=O)CC2)c2nc(Br)c(Br)[nH]2)cc2cn[nH]c12` (racemic) [Example 87, (±)-N-(1-(4,5-Dibromo-1H-imidazol-2-yl)-2-(7-methyl-1H-indazol-5-yl)ethyl)-4-(2-oxo-1,2-dihydroquinazolin-3(4H)-yl)piperidine-1-carboxamide], which IC50 is on record?
A: < 10 nM

Q: For `Cc1cc(CC(OC(=O)N2CCC(N3Cc4ccccc4NC3=O)CC2)c2ccco2)cc2cn[nH]c12` (centres unmarked) [Example 56, 1-(Furan-2-yl)-2-(7-methyl-1H-indazol-5-yl)ethyl 4-(2-oxo-1,2-dihydroquinazolin-3(4H)-yl)piperidine-1-carboxylate], which IC50 is on record?
A: 10 to 100 nM

Q: How did the IC50 turn out when `Cc1cc(CC(NC(=O)N2CCC(N3Cc4ccccc4NC3=O)CC2)c2nnnn2CC(C)(C)C)cc2cn[nH]c12` (racemic) [Example 84, (±)-N-(2-(7-Methyl-1H-indazol-5-yl)-1-(1-neopentyl-1H-tetrazol-5-yl)ethyl)-4-(2-oxo-1,2-dihydroquinazolin-3(4H)-yl)piperidine-1-carboxamide] was run?
A: < 10 nM

Q: `Cc1cc(CC(CC(=O)N2CCC(N3Cc4cccc(F)c4NC3=O)CC2)c2ccccn2)cc2cn[nH]c12` (racemic) [Example 23, (±)-8-Fluoro-3-(1-(4-(7-methyl-1H-indazol-5-yl)-3-(pyridin-2-yl)butanoyl)piperidin-4-yl)-3,4-dihydroquinazolin-2(1H)-one] was tested. Which IC50 did it give?
A: 10 to 100 nM

Q: Which IC50 does the source give for `Cc1cc(CC(CC(=O)N2CCC(N3Cc4ccccc4NC3=O)CC2)c2ccc(CN3CCCCC3)cn2)cc2cn[nH]c12` (racemic) [Example 29, (±)-3-(1-(4-(7-Methyl-1H-indazol-5-yl)-3-(5-(piperidin-1-ylmethyl)pyridin-2-yl)butanoyl)piperidin-4-yl)-3,4-dihydroquinazolin-2(1H)-one] here?
A: < 10 nM

Q: How did the IC50 turn out when `Cc1cc(C)nc(C(Cc2cc(C)c3[nH]ncc3c2)OC(=O)N2CCC(c3cc4ccccc4[nH]c3=O)CC2)n1` (centres unmarked) [Example 62, 1-(4,6-Dimethylpyrimidin-2-yl)-2-(7-methyl-1H-indazol-5-yl)ethyl 4-(2-oxo-1,2-dihydroquinolin-3-yl)piperidine-1-carboxylate] was run?
A: 100 to 1000 nM

Q: How did the IC50 turn out when `Cc1cc(CC(NC(=O)N2CCC(N3Cc4cccc(F)c4NC3=O)CC2)c2cc3ccccc3cn2)cc2cn[nH]c12` (centres unmarked) [Example 51, 4-(8-fluoro-2-oxo-1,2-dihydroquinazolin-3(4H)-yl)-N-(1-(isoquinolin-3-yl)-2-(7-methyl-1H-indazol-5-yl)ethyl)piperidine-1-carboxamide] was run?
A: < 10 nM

Q: For `Cc1cc(CC(NC(=O)N2CCC(N3Cc4ccccc4NC3=O)CC2)c2nccn2-c2ccccc2[N+](=O)[O-])cc2cn[nH]c12` (racemic) [Example 79, (±)-N-(2-(7-Methyl-1H-indazol-5-yl)-1-(1-(2-nitrophenyl)-1H-imidazol-2-yl)ethyl)-4-(2-oxo-1,2-dihydroquinazolin-3(4H)-yl)piperidine-1-carboxamide], which IC50 is on record?
A: < 10 nM

Q: How did the IC50 turn out when `Cc1cc(CC(NC(=O)N2CCC(N3Cc4ccccc4NC3=O)CC2)c2nccn2C)cc2cn[nH]c12` (racemic) [Example 66, (±)-N-(1-(1-Methyl-1H-imidazol-2-yl)-2-(7-methyl-1H-indazol-5-yl)ethyl)-4-(2-oxo-1,2-dihydroquinazolin-3(4H)-yl)piperidine-1-carboxamide] was run?
A: < 10 nM

Q: For `Cc1cc(CC(CC(=O)N2CCC(N3Cc4ccccc4NC3=O)CC2)c2nc(CN3CCCCC3)no2)cc2cn[nH]c12` (racemic) [Example 3, (±)-3-{1-[4-(7-Methyl-1H-indazol-5-yl)-3-(3-piperidin-1-ylmethyl [1,2,4]oxadiazol-5-yl)-butyryl]-piperidin-4-yl}-3,4-dihydro-1H-quinazolin-2-one], which IC50 is on record?
A: 10 to 100 nM

Q: For `Cc1cc(CC(CC(=O)N2CCC(N3Cc4ccccc4NC3=O)CC2)c2nc(Cc3ccccc3)no2)cc2cn[nH]c12` (racemic) [Example 2, (±)-3-{1-[3-(3-Benzyl-[1,2,4]oxadiazol-5-yl)-4-(7-methyl-1H-indazol-5-yl)-butyryl]-piperidin-4-yl}-3,4-dihydro-1H-quinazolin-2-one], which IC50 is on record?
A: < 10 nM

Q: With `Cc1cc(CC(NC(=O)N2CCC(N3Cc4ccccc4NC3=O)CC2)c2nccn2CCc2ccccc2)cc2cn[nH]c12` (racemic) [Example 70, (±)-N-(2-(7-Methyl-1H-indazol-5-yl)-1-(1-phenethyl-1H-imidazol-2-yl)ethyl)-4-(2-oxo-1,2-dihydroquinazolin-3(4H)-yl)piperidine-1-carboxamide] as the molecule, how does the IC50 read?
A: < 10 nM

Q: How did the IC50 turn out when `Cc1cc(CC(OC(=O)N2CCC(N3Cc4cccc(F)c4NC3=O)CC2)c2cccc(C#N)n2)cc2cn[nH]c12` (racemic) [Example 45, (±)-1-(6-Cyanopyridin-2-yl)-2-(7-methyl-1H-indazol-5-yl)ethyl 4-(8-fluoro-2-oxo-1,2-dihydroquinazolin-3(4H)-yl)piperidine-1-carboxylate] was run?
A: < 10 nM

Q: With `Cc1cc(CC(OC(=O)N2CCC(N3Cc4ccccc4NC3=O)CC2)c2cc3ccccc3cn2)cc2cn[nH]c12` (centres unmarked) [Example 53, 1-(Isoquinolin-3-yl)-2-(7-methyl-1H-indazol-5-yl)ethyl 4-(2-oxo-1,2-dihydroquinazolin-3(4H)-yl)piperidine-1-carboxylate] as the molecule, how does the IC50 read?
A: < 10 nM

Q: With `Cc1cc(CC(NC(=O)N2CCC(N3Cc4ccccc4NC3=O)CC2)c2nccn2Cc2cccnc2)cc2cn[nH]c12` (racemic) [Example 91, (±)-N-(2-(7-Methyl-1H-indazol-5-yl)-1-(1-(pyridin-3-ylmethyl)-1H-imidazol-2-yl)ethyl)-4-(2-oxo-1,2-dihydroquinazolin-3(4H)-yl)piperidine-1-carboxamide] as the molecule, how does the IC50 read?
A: < 10 nM

Q: How did the IC50 turn out when `CC1=CC(CC(CC(=O)N2CCC(N3Cc4ccccc4NC3=O)CC2)c2nccn2Cc2ccncc2)=CC2C=NNC12` (centres unmarked) [Example 97, 3-(1-(4-(7-Methyl-3a,7a-dihydro-1H-indazol-5-yl)-3-(1-(pyridin-4-ylmethyl)-1H-imidazol-2-yl)butanoyl)piperidin-4-yl)-3,4-dihydroquinazolin-2(1H)-one] was run?
A: < 10 nM
